# Results published in US8802593B2 (priority 2009, dated 2014).
# How the values were obtained:
# Assay type in all cases: in vivo
# wheat leaf rust = assay: Test Example 2: foliar spray on wheat, wheat leaf rust, control value; details: wheat (SHIROGANEKOMUGI) leaf spray, Compound I 0, 8 days at 23° C.
# Description: A plastic pot was filled with sandy soil and seeds of wheat (SHIROGANEKOMUGI) were sown on it, followed by cultivation in a greenhouse for 10 days. A wettable powder of the compound I was prepared by mixing 10 parts of the compound I, 35 parts of a mixture of white carbon and a polyoxyethylene alkyl ether sulfate ammonium salt (weight ratio of 1:1) and 55 parts of […], followed by grinding the mixture. A wettable powder of the compound (1b) was prepared by mixing 10 parts of the compound (1b), 35 parts of a mixture of white carbon and a polyoxyethylene alkyl ether sulfate ammonium salt (weight ratio of 1:1) and 55 parts of […], followed by grinding the mixture. […] After allowing to stand overnight at 23° C. under high humidity followed by cultivation in an artificial climate laboratory at 23° C. for 8 days, leaf area and lesion area of the wheat leaves were checked and the incidence of disease was calculated by Equation 3. […]
# (§1) In order to calculate a control value, the same test was conducted in which the plants had been treated with none of the test compounds and the incidence of disease was determined.
# (§2) The control value was calculated by the Equation 2 based on the incidence of disease thus determined. […]
# Fusarium graminearum = details: corn (Pioneer) seeds; QoI alone 10 g per 100 kg seeds; 15° C. for 15 days; seedling emergence
# [1] = test system: Fusarium solani f. sp. pisi; assay: Test Example 1: seed treatment of pea, pea root rot, control value; details: Pisum sativum L seeds, Compound I 0, pea root rot after 16 days
# Description: A DMSO solution of the compound I and a DMSO solution of the compound (1b) were respectively prepared. These solutions were mixed to prepare a DMSO solution containing predetermined concentrations of the compound I and the compound (1b). Ten (10) μL of the DMSO solution and 10 g of seeds of Pisum sativum L were mixed by shaking in a 50-ml conical tube and then allowed to stand overnight to prepare treated seeds. A plastic pot was filled with sandy soil and the treated seeds were sown on it and then covered with sandy soil which had been mixed with a bran culture of Fusarium solani f. sp. pisi. The sown seeds were watered and then cultured in a greenhouse at 20 to 24° C. […] After 16 days, the occurrence of pea root rot diseases was checked and the incidence of disease was calculated by Equation 1.
# For comparison, a DMSO solution containing a predetermined concentration of the compound (1b) was prepared and subjected to the same test and then the incidence of disease was determined.
# as §1, §2
# Fusarium avenaceum = assay: Test Example 4: seed treatment of corn, soil with Fusarium avenaceum, control value; details: corn (Pioneer) seeds; azoxystrobin alone 10 g per 100 kg seeds; 15° C. for 15 days; seedling emergence
# Description: A DMSO solution of the compound I and a DMSO solution of azoxystrobin were respectively prepared. These solutions were mixed to prepare a DMSO solution containing predetermined concentrations of the compound I and azoxystrobin. Twenty-five (25) μL of each of the DMSO solution and 10 g of seeds of corn (Pioneer) were mixed by shaking in a 50-ml conical tube and then allowed to stand overnight to prepare treated seeds. A plastic pot was filled with sandy soil and the treated seeds were sown on it and then covered with sandy soil which had been mixed with a bran culture of Fusarium avenaceum. The sown seeds were watered and then cultured in a greenhouse at 15° C. for 15 days. The number of emerged seedlings was checked and the incidence of disease was calculated by Equation 4.
# For comparison, a DMSO solution containing a predetermined concentration of azoxystrobin was prepared and subjected to the same test and then the incidence of disease was determined.
# as §1
# The control value was calculated by the Equation 2 based on the incidence of disease thus determined.
Compound,Control value (Fusarium graminearum),other results
CNC(=O)C(OC)c1ccccc1COc1cc(C)ccc1C (racemic) [Compound (1b)],83,Control value (wheat leaf rust; Compound (1b) 10 ppm): 50; Control value (wheat leaf rust; Compound (1b) 20 ppm): 81; Control value ([1]; Compound (1b) 1 g/100 kg seeds): 64; Control value ([1]; Compound (1b) 5 g/100 kg seeds): 64
CO/C=C(/C(=O)OC)c1ccccc1Oc1cc(Oc2ccccc2C#N)ncn1 [azoxystrobin],–,Control value (Fusarium avenaceum): 67
CO/N=C(/C(=O)OC)c1ccccc1COc1ccccc1C [kresoxim-methyl],67,–
COC(=O)NCc1cc(/C(C)=N/OCc2cccc(C)n2)ccc1Cl [pyribencarb],83,–
CON=C(C(=O)OC)c1ccccc1CON=C(C)c1cccc(C(F)(F)F)c1 [trifloxystrobin],83,–
COC(=O)N(OC)c1ccccc1COc1ccn(-c2ccc(Cl)cc2)n1 [pyraclostrobin],83,–
